Results: patent publication US20230115350A1 (Cedilla Therapeutics, Inc., priority 2021, published 2023)

Biological target: TEAD1 protein (YAP Binding Domain) (Homo sapiens, UniProt P28347)
Experiment: TEAD1 lipid pocket compound displacement assay (TR-FRET, Cy5-probe)
Settings: 60 minutes incubation at room temperature; TR-FRET 665 nm/620 nm; read-out: CDA IC50
Protocol: Compound Displacement Assay.
A TEAD1 lipid pocket displacement assay was carried out according to the following protocol. Purified His-tagged TEAD1 protein (YAP Binding Domain) was pre-mixed with a Cy5-probe (Cy5-conjugated to a small molecule that binds in the TEAD1 lipid pocket) and Terbium-labeled anti-His antibody (Cisbio Cat 61HI2TLB). The binding of the Cy5-probe to anti-His-Tb/His-tag TEAD1 complex yielded a TR-FRET signal. […] After 60 minutes incubation at room temperature of compounds with the His-TEAD1/anti-His-Tb/Cy5-probe complex, the plate was read on a plate reader (BMG ClarioStar Cat 430-1300) using TR-FRET mode with wavelengths of 665 nm/620 nm. The potency of compounds as TEAD1 lipid pocket binders was determined by IC50 value generated using a non-linear 4 parameter curve fit.

Sequence of TEAD1 protein (YAP Binding Domain) (P28347 209-426 limits assumed): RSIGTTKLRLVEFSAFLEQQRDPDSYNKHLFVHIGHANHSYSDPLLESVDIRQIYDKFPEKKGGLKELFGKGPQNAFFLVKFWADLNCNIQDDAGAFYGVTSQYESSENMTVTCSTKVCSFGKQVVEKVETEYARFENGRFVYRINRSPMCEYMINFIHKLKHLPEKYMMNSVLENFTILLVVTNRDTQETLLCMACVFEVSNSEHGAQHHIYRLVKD

Row | Structure (SMILES) | IC50 [nM]
1 | C=CC(=O)Nc1ccc(OCc2ccc(C)nc2)c(F)c1 [Compound 69, N-(3-fluoro-4-((6-methylpyridin-3-yl)methoxy)phenyl)acrylamide] | > 2000
2 | Fc1cc(-c2nnn[nH]2)ccc1OCC1CCC(F)(F)CC1 [Compound 29, 5-(4-((4,4-difluorocyclohexyl)methoxy)-3-fluorophenyl)-1H-tetrazole] | 500 to 2000
3 | C=CC(=O)Nc1ccc(OCc2cccc(F)c2F)c(F)c1 [Compound 95, N-(4-((2,3-difluorobenzyl)oxy)-3-fluorophenyl)acrylamide] | 250 to 500
4 | C=CC(=O)Nc1ccc(OCc2cccc(F)c2)cc1CC(N)=O [Compound 11, N-(2-(2-amino-2-oxoethyl)-4-((3-fluorobenzyl)oxy)phenyl)acrylamide] | > 2000
5 | C=CC(=O)Nc1ccc(OCc2cc(F)cc(F)c2)c(F)c1 [Compound 97, N-(4-((3,5-difluorobenzyl)oxy)-3-fluorophenyl)acrylamide] | 250 to 500
6 | C=CC(=O)Nc1ccc(OCc2ccc(C#N)cc2Cl)c(F)c1 [Compound 77, N-(4-((2-chloro-4-cyanobenzyl)oxy)-3-fluorophenyl)acrylamide] | > 2000
7 | C=CC(=O)Nc1ccc2c(c1)NCC(c1cccc(F)c1)O2 (stereo not shown) [Compound 10, N-(2-(3-fluorophenyl)-3,4-dihydro-2H-benzo[b][1,4]oxazin-6-yl)acrylamide] | > 2000
8 | C=CC(=O)Nc1ccc(OCc2cccc(F)c2)c2c1CCCO2 [Compound 14, N-(8-((3-fluorobenzyl)oxy)chroman-5-yl)acrylamide] | > 2000
9 | C=CC(=O)Nc1ccc(OCc2ccsc2Cl)c(F)c1 [Compound 61, N-(4-((2-chlorothiophen-3-yl)methoxy)-3-fluorophenyl)acrylamide] | 500 to 2000
10 | C=CC(=O)Nc1ccc(OC(C)c2ccccc2Cl)c(F)c1 (stereo not shown) [Compound 123, N-(4-(1-(2-chlorophenyl)ethoxy)-3-fluorophenyl)acrylamide] | 500 to 2000
11 | C=CC(=O)Nc1ccc(OCc2cnccc2Cl)c(F)c1 [Compound 57, N-(4-((4-chloropyridin-3-yl)methoxy)-3-fluorophenyl)acrylamide] | > 2000
12 | C=CC(=O)Nc1ccc(OCc2cccnc2)c(F)c1 [Compound 56, N-(3-fluoro-4-(pyridin-3-ylmethoxy)phenyl)acrylamide] | > 2000
13 | C=CC(=O)Nc1ccc(OCc2cc(OC)ccc2Cl)c(F)c1 [Compound 88, N-(4-((2-chloro-5-methoxybenzyl)oxy)-3-fluorophenyl)acrylamide] | 250 to 500
14 | C=CC(=O)Nc1ccc(OCc2c(Cl)cccc2Cl)c(F)c1 [Compound 86, N-(4-((2,6-dichlorobenzyl)oxy)-3-fluorophenyl)acrylamide] | > 2000
15 | C=CC(=O)Nc1ccc(OCc2ccc(C(=O)OC)nc2)c(F)c1 [Compound 70, methyl 5-((4-acrylamido-2-fluorophenoxy)methyl)picolinate] | > 2000
16 | C=CC(=O)Nc1ccc(OCc2cccc(F)c2)c(C#N)c1 [Compound 130, N-(3-cyano-4-((3-fluorobenzyl)oxy)phenyl)acrylamide] | 500 to 2000
17 | C=CC(=O)Nc1ccc2c(c1)N(C)CC(c1cccc(F)c1)O2 (stereo not shown) [Compound 12, N-(2-(3-fluorophenyl)-4-methyl-3,4-dihydro-2H-benzo[b][1,4]oxazin-6-yl)acrylamide] | > 2000
18 | C=CC(=O)Nc1ccc(OCc2ccncc2)c(F)c1 [Compound 66] | > 2000
19 | C=CC(=O)Nc1cc(F)c(OCc2cccc(F)c2)cn1 [Compound 128, N-(4-fluoro-5-((3-fluorobenzyl)oxy)pyridin-2-yl)acrylamide] | ≤ 250
20 | C=CC(=O)Nc1ccc(OCc2cccc(F)c2)c(F)n1 [Compound 127, N-(6-fluoro-5-((3-fluorobenzyl)oxy)pyridin-2-yl)acrylamide] | ≤ 250
21 | C=CC(=O)Nc1ccc(OCc2cccc(F)c2)c(OC)c1 [Compound 6, N-(4-((3-fluorobenzyl)oxy)-3-methoxyphenyl)acrylamide] | 250 to 500
22 | C=CC(=O)Nc1ccc(OCc2cc(C(=O)OC)ccc2Cl)c(F)c1 [Compound 87, methyl 3-((4-acrylamido-2-fluorophenoxy)methyl)-4-chlorobenzoate] | 500 to 2000
23 | C=CC(=O)Nc1ccc(N(Cc2cccc(F)c2)CC2CC2)c(F)c1 [Compound 17, N-(4-((cyclopropylmethyl)(3-fluorobenzyl)amino)-3-fluorophenyl)acrylamide] | ≤ 250
24 | O=C(NS(=O)(=O)C1CC1)c1ccc(OCC2CCC(F)(F)CC2)c(F)c1 [Compound 37, N-(cyclopropylsulfonyl)-4-((4,4-difluorocyclohexyl)methoxy)-3-fluorobenzamide] | 500 to 2000
25 | C=CC(=O)Nc1ccc(OC(C)C2CCC(F)(F)CC2)c(F)c1 (stereo not shown) [Compound 30, N-(4-(1-(4,4-difluorocyclohexyl)ethoxy)-3-fluorophenyl)acrylamide] | 250 to 500

Row | Structure (SMILES) | IC50 [nM]
26 | C=CC(=O)Nc1ccc(OCc2cccc(F)c2)cc1C1CC1 [Compound 4, N-(2-cyclopropyl-4-((3-fluorobenzyl)oxy)phenyl)acrylamide] | 250 to 500
27 | C=CC(=O)Nc1ccc(OCc2c(F)cccc2Cl)c(F)c1 [Compound 85, N-(4-((2-chloro-6-fluorobenzyl)oxy)-3-fluorophenyl)acrylamide] | > 2000
28 | C=CS(=O)(=O)Nc1ccc(OCC2CCC(F)(F)CC2)c(F)c1 [Compound 34, N-(4-((4,4-difluorocyclohexyl)methoxy)-3-fluorophenyl) ethene sulfonamide] | ≤ 250
29 | C=CC(=O)Nc1ccc(OCc2ccc(C(=O)OC)s2)c(F)c1 [Compound 62, methyl 5-((4-acrylamido-2-fluorophenoxy)methyl)thiophene-2-carboxylate] | 500 to 2000
30 | C=CC(=O)Nc1ccc(OCCCC(F)(F)F)c(F)c1 [Compound 94, N-(3-fluoro-4-(4,4,4-trifluorobutoxy)phenyl)acrylamide] | 500 to 2000
31 | C=CC(=O)Nc1ccc(C2CCc3ccccc3C2)c(F)c1 (stereo not shown) [Compound 119, N-(3-fluoro-4-(1,2,3,4-tetrahydronaphthalen-2-yl)phenyl)acrylamide] | 500 to 2000
32 | C=CC(=O)Nc1ccc(OCc2cccc(F)c2)c(Cl)c1 [Compound 46, N-(3-chloro-4-((3-fluorobenzyl)oxy)phenyl)acrylamide] | ≤ 250
33 | C=CC(=O)Nc1ccc(OCc2ccnc(C#N)c2)c(F)c1 [Compound 67, N-(4-((2-cyanopyridin-4-yl)methoxy)-3-fluorophenyl)acrylamide] | > 2000
34 | C=CC(=O)Nc1ccc2c(c1)CCC(c1cccc(F)c1)O2 (stereo not shown) [Compound 5, N-(2-(3-fluorophenyl)chroman-6-yl)acrylamide] | > 2000
35 | C=CC(=O)Nc1ccc(OCc2cc(Cl)ccc2Cl)c(F)c1 [Compound 79, N-(4-((2,5-dichlorobenzyl)oxy)-3-fluorophenyl)acrylamide] | 500 to 2000
36 | C=CC(=O)Nc1ccc(OCc2cccc(F)c2)cc1C [Compound 47, N-(4-((3-fluorobenzyl)oxy)-2-methylphenyl)acrylamide] | 500 to 2000
37 | C=CC(=O)Nc1ccc(OCc2cccc(F)c2)cc1Cc1ccncc1 [Compound 13, N-(4-((3-fluorobenzyl)oxy)-2-(pyridin-4-ylmethyl)phenyl)acrylamide] | > 2000
38 | C=CC(=O)Nc1ccc(OCc2cccc(F)c2)c(C2CC2)c1 [Compound 2, N-(3-cyclopropyl-4-((3-fluorobenzyl)oxy)phenyl)acrylamide] | 250 to 500
39 | C=CC(=O)Nc1ccc(N(Cc2ccncc2)Cc2cccc(F)c2)c(F)c1 [Compound 18, N-(3-fluoro-4-((3-fluorobenzyl)(pyridin-4-ylmethyl)amino)phenyl)acrylamide] | > 2000
40 | C=CC(=O)Nc1ccc(OCc2cccc(F)c2)c2c1CCCC2 [Compound 15, N-(4-((3-fluorobenzyl)oxy)-5,6,7,8-tetrahydronaphthalen-1-yl)acrylamide] | 250 to 500
41 | C=CC(=O)Nc1ccc(OCc2ccccc2)c(F)c1 [Compound 52, N-(4-(benzyloxy)-3-fluorophenyl)acrylamide] | 250 to 500
42 | C=CC(=O)Nc1ccc(OCc2cccc(C#N)c2)c(F)c1 [Compound 92, N-(4-((3-cyanobenzyl)oxy)-3-fluorophenyl)acrylamide] | 500 to 2000
43 | C=CC(=O)Nc1ccc(OCc2cccnc2C)c(F)c1 [Compound 75, N-(3-fluoro-4-((2-methylpyridin-3-yl)methoxy)phenyl)acrylamide] | > 2000
44 | C=CC(=O)Nc1ccc(C2COc3ccccc3C2=O)c(F)c1 (stereo not shown) [Compound 131, N-(3-fluoro-4-(4-oxochroman-3-yl)phenyl)acrylamide] | 500 to 2000
45 | C=CC(=O)Nc1ccc(OCc2ccc(C(F)(F)F)cc2Cl)c(F)c1 [Compound 81, N-(4-((2-chloro-4-(trifluoromethyl)benzyl)oxy)-3-fluorophenyl)acrylamide] | > 2000
46 | C=CC(=O)Nc1ccc(OCc2cccc(F)c2)cc1OC [Compound 7, N-(4-((3-fluorobenzyl)oxy)-2-methoxyphenyl)acrylamide] | ≤ 250
47 | C=CC(=O)Nc1ccc(OCC2CCC(F)(F)CC2)c(C)c1 [Compound 48, N-(4-((4,4-difluorocyclohexyl)methoxy)-3-methylphenyl)acrylamide] | ≤ 250
48 | C=CC(=O)Nc1cc2nc(CCc3cccc(F)c3)oc2cc1F [Compound 139, N-(6-fluoro-2-(3-fluorophenethyl)benzo[d]oxazol-5-yl)acrylamide] | 250 to 500
49 | CS(=O)(=O)Nc1ccc(OCC2CCC(F)(F)CC2)c(F)c1 [Compound 33, N-(4-((4,4-difluorocyclohexyl)methoxy)-3-fluorophenyl)methane sulfonamide] | 500 to 2000
